Measured values as given in patent publication US6713473B1, “Tricyclic compounds” (Meiji Seika Kaisha, Ltd., priority 1999, dated 2004).
Where two headings read alike, the source gives them in different places.

Target: T1, human Y5 receptor (Homo sapiens, UniProt Q15761)
T1 sequence (Q15761 1-445): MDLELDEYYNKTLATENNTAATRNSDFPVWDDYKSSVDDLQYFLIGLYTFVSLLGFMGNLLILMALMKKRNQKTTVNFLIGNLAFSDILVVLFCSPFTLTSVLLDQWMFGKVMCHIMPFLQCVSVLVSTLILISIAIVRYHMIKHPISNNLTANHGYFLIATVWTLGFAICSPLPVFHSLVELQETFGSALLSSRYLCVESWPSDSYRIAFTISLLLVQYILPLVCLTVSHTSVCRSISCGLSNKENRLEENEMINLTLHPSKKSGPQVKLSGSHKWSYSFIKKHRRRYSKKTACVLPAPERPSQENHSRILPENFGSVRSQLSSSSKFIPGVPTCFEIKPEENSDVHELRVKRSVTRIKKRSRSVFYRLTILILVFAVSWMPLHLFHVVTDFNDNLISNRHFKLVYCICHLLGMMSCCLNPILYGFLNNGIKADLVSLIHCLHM
Experiment: Y5 receptor binding inhibition test
Conditions: for inhibition at 10 µM: 2 h, read-out: % Inhibition ratio (10 μM)

[1] = test compound 10 μM, 3H-NPY, membrane of insect cells expressing human Y5 receptor, 4° C., 2 hours, relative to Y5 specific binding in solvent group

Structure (SMILES)	% Inhibition ratio (10 μM) [1] [%]	also measured
CC(C)n1c2c(c3cc(NC(=O)N4CCC(CCO)CC4)ccc31)CCCC2 [Compound 7-12]	94	
CC(C)n1c2c(c3cc(NC(=O)N4CCC(N5CCCCC5)CC4)ccc31)CCCC2 [Compound 7-13]	83	
CC(C)n1c2c(c3cc(NC(=O)N4CCSC4)ccc31)CCCC2 [Compound 7-14]	96	
CC(C)n1c2c(c3cc(NC(=O)N4CCSCC4)ccc31)CCCC2 [Compound 7-15]	88	
CC(C)n1c2c(c3cc(NC(=O)N4C[C@@H](C)O[C@@H](C)C4)ccc31)CCCC2 [Compound 7-16]	96	
CC(C)n1c2c(c3cc(NC(=O)N4CCOC(CCO)C4)ccc31)CCCC2 (stereo not shown) [Compound 7-17]	99	
CC(C)n1c2c(c3cc(NC(=O)N4CCNCC4)ccc31)CCCC2 [Compound 7-18]	92	
CC(C)n1c2c(c3cc(NC(=O)N4CCN(C)CC4)ccc31)CCCC2 [Compound 7-19]	75	
CC(C)n1c2c(c3cc(NC(=O)N4CCN(c5ccccn5)CC4)ccc31)CCCC2 [Compound 7-20]	89	
CC(C)n1c2c(c3cc(NC(=O)N4CCN(c5ncccn5)CC4)ccc31)CCCC2 [Compound 7-21]	80	
CCn1c2c(c3cc(NC(=O)N4CCOCC4)ccc31)CCCC2 [Compound 8-2]	95	
CCCn1c2c(c3cc(NC(=O)N4CCOCC4)ccc31)CCCC2 [Compound 8-3]		% Inhibition ratio (10 μM): 101%
CC(C)n1c2c(c3cc(NC(=O)N4CCOCC4)ccc31)CCCC2 [Compound 8-4]	98	
CCCCn1c2c(c3cc(NC(=O)N4CCOCC4)ccc31)CCCC2 [Compound 8-5]	85	
CC(C)Cn1c2c(c3cc(NC(=O)N4CCOCC4)ccc31)CCCC2 [Compound 8-6]	100	
O=C(Nc1ccc2c(c1)c1c(n2CC2CC2)CCCC1)N1CCOCC1 [Compound 8-7]	100	
O=C(Nc1ccc2c(c1)c1c(n2CCO)CCCC1)N1CCOCC1 [Compound 8-9]		% Inhibition ratio (10 μM): 101%
N#CCn1c2c(c3cc(NC(=O)N4CCOCC4)ccc31)CCCC2 [Compound 8-10]	78	
CC(=O)n1c2c(c3cc(NC(=O)N4CCOCC4)ccc31)CCCC2 [Compound 8-11]	102	
CC(C)n1c2c(c3cc(NC(=O)N(C)CCc4ccccn4)ccc31)CCC2 [Compound 10-2]	83	
CC(C)n1c2c(c3cc(NC(=O)N(C)CCc4ccncc4)ccc31)CCC2 [Compound 10-3]	95	
CC(C)n1c2c(c3cc(NC(=O)N4CCOCC4)ccc31)CCC2 [Compound 10-4]	94	
CC(C)n1c2c(c3cc(NC(=O)N(C)CCc4ccccn4)ccc31)CCCCC2 [Compound 11-2]	96	
CC(C)n1c2c(c3cc(NC(=O)N(C)CCc4ccncc4)ccc31)CCCCC2 [Compound 11-3]	100	
CC(C)n1c2c(c3cc(NC(=O)N4CCOCC4)ccc31)CCCCC2 [Compound 11-4]	97	
CC(C)n1c2c(c3cc(NC(=O)N(C)CCc4ccncc4)c(F)cc31)CCCC2 [Compound 12-1]		inhibition at 10 µM: 100%
CC(C)n1c2c(c3cc(NC(=O)N(C)CCc4ccncc4)cc(F)c31)CCCC2 [Compound 12-2]		inhibition at 10 µM: 96%
CC(C)n1c2c(c3cc(NC(=S)N(C)CCc4ccncc4)ccc31)CCCC2 [Compound 12-3]		inhibition at 10 µM: 97%
